Data on 16 compounds can be found in US20200188361A1, “USE OF MITOCHONDRIAL ACTIVITY INHIBITORS FOR THE TREATMENT OF POOR PROGNOSIS ACUTE MYELOID LEUKEMIA” (UNIVERSITE DE MONTREAL, priority 2016, published 2020).

One test relates to OCI-AML3 cells. The test is described as follows: Dose-response curves in AML cell line (6-day culture assay in 384-well plates). Type of test: cell-based. Conditions: dose-response curves FIGS. 5H-J. As to the method: FIGS. 5A-5J show the results on experiments assessing the mode of action of Mubritinib for mediating tumor cell death. FIG. 5A: OCI-AML3 leukemic cells were either pre-incubated for 4 hours with 6 mM N-acetyl-cysteine (NAC), a reactive oxygen species (ROS) scavenger, or with vehicle (water) before being treated with 100 nM Mubritinib for 24 h or vehicle (DMSO). […] FIGS. 5C and 5D show the levels of reduced and oxidized levels of glutathione, respectively, in OCI-AML3 treated or not with Mubritinib, as detected by liquid chromatography-mass spectrometry (LC/MS). […] FIG. 5G is a graph depicting dose-response curves upon Mubritinib treatment (6-day culture assay in 384-well plates) of OCI-AML3 and OCI-AML5 cell lines. FIGS. 5H-J are graphs depicting dose-response curves following treatment of OCI-AML3 and OCI-AML5 cell lines with other ETC inhibitors, namely Oligomycin (inhibitor of complex V, FIG. 5H), Rotenone (inhibitor of complex I, FIG. 5I) and Deguelin (inhibitor of complex I, FIG. 5J).
OCI-AML3 cells were maintained in alpha-MEM, 20% FBS whereas breat tumor BT474 cells were maintained in DMEM 10% FBS.
(§1) Patient cells were seeded in 384-well plates at a density of 5,000 cells in 50 μL per well. In the initial screen, compounds were added to seeded cells in serial dilutions (10 dilutions, 1:3, starting from 10 μM or 20 μM), in duplicates. Cells treated with 0.1% DMSO without additional compound were used as negative controls. Viable cell counts per well were evaluated after 6 days of culture using the CellTiterGlo® assay (Promega®) according to the manufacturer's instruction. The percent of inhibition was calculated as follows: 100−(100×(mean luminescence(compound)/mean luminescence(DMSO)); where mean-luminescence(compound) corresponds to the average of luminescent signals obtained for the compound-treated cells, and mean-luminescence(DMSO) corresponds to the average of luminescent signals obtained for the control DMSO-treated cells.

In test [1] the test system is HOX-high AML patient cells. The test is described as follows: Primary chemical screen of 60 compounds, cell dose-response viability assay (CellTiterGlo, 6 days). The class given is cell-based, human. As to conditions: for EC50: read-out: MEAN EC50 HOX-high. How it is done: (§2) frozen AML mono-nucleated cells were thawed at 37° C. in Iscove's modified Dulbecco's medium (IMDM) containing 20% FBS and DNase I (100 μg/mL).
(§3) All powders were dissolved in DMSO and diluted in culture medium immediately before use. Final DMSO concentration in all conditions was 0.1%. The 60 compounds were purchased from various suppliers including Santa Cruz, Selleckchem, Calbiochem, AdooQ Bioscience, Cayman chemical and Synkinase.
(§4) Patient cells were seeded in 384-well plates at a density of 5,000 cells in 50 μL per well. In the initial screen, compounds were added to seeded cells in serial dilutions (10 dilutions, 1:3, starting from 10 μM or 20 μM), in duplicates. Cells treated with 0.1% DMSO without additional compound were used as negative controls. Viable cell counts per well were evaluated after 6 days of culture using the CellTiterGlo® assay (Promega®) according to the manufacturer's instruction.
(§5) Using high expression of HOXA9 and HOXA10 as a surrogate for the detection of HOX-network-high patient samples, the survival of HOX-high versus HOX-med/low specimens contacted with 60 inhibitors targeting receptor tyrosine kinases (RTK), members of the RAS and PI3K pathways, was assessed (FIG. 2A, Table 4).
On the technique in general: ATP-based viability assays read luminescence as a measure of living cells.

For test [2], the system named is HOX-med/low AML patient cells. The test is described as above. Type of test: cell-based, human. Conditions: read-out: MEAN EC50 HOX-med/low. How it is done:
as §2, §3, §4, §5

A further test concerns AML patient specimens. The test is described as follows: Cell dose-response viability assay on AML patient specimens (primary and validation screen). Type of test: cell-based, human. Conditions: all 41 AML patient specimens tested, primary screen (FIG. 4D). As to the method:
as §2, §1

Where [3] appears, read: Homo sapiens, 144 h, primary screen, mean over HOX-high patient specimens, 6 days culture, top concentration 10 μM or 20 μM.
Where [4] appears, read: ratio of mean EC50 HOX-high to mean EC50 HOX-med/low.
Setting [5] is: Homo sapiens, 144 h, primary screen, mean over HOX-med/low patient specimens, 6 days culture, top concentration 10 μM or 20 μM.
[6] abbreviates: primary screen, mean over HOX-high patient specimens, 6 days culture, top concentration 10 μM or 20 μM.
Setting [7] is: primary screen, mean over HOX-med/low patient specimens, 6 days culture, top concentration 10 μM or 20 μM.

The structures appear in SMILES notation. Structures can show the parent of a compound that is named as a salt. Where two headings read alike, the source gives them in different places. Where only a bound is given, the exact number is not on record here.

In the case of `COc1cc2c(cc1OC)[C@@H]1C(=O)c3ccc4c(c3O[C@@H]1CO2)C=CC(C)(C)O4` [Deguelin], the “sensitivity of OCI-AML3 relative to OCI-AML5” value with OCI-AML3 cells was “more sensitive than OCI-AML5”.
In the case of `CS(=O)(=O)CCNCc1ccc(-c2ccc3ncnc(Nc4ccc(OCc5cccc(F)c5)c(Cl)c4)c3c2)o1` [Lapatinib ditosylate., Lapatinib ditosylate], the EC50 in test [1] (setting [3]) stood at 8.87 µM; in test [2] (setting [5]), 9.92 µM. In addition, the “FOLD CHANGE High/Med-low” value in test [1] (setting [4]) was 0.9. The “sensitivity of AML patient specimens” value with AML patient specimens is listed as “resistant”.
Consider `CC[C@H]1/C=C/C=C/C[C@@H](C)[C@H](O)[C@@](C)(O)C(=O)[C@@H](C)[C@H](O)[C@@H](C)C(=O)[C@@H](C)[C@H](O)[C@@H](C)/C=C/C(=O)O[C@@H]2[C@H](C)[C@H](CC1)O[C@]1(CC[C@H](C)[C@H](C[C@@H](C)O)O1)[C@H]2C` [Oligomycin], for which, in the test on OCI-AML3 cells, the “sensitivity of OCI-AML3 relative to OCI-AML5” value is recorded as “more sensitive than OCI-AML5”.
Consider `C=C(C)[C@H]1Cc2c(ccc3c2O[C@@H]2COc4cc(OC)c(OC)cc4[C@@H]2C3=O)O1` [Rotenone], for which, in the test with OCI-AML3 cells, the “sensitivity of OCI-AML3 relative to OCI-AML5” value is “more sensitive than OCI-AML5”.
With `CNC(=O)c1cc(Oc2ccc(NC(=O)Nc3ccc(Cl)c(C(F)(F)F)c3)cc2)ccn1` [Sorafenib Tosylate], the “FOLD CHANGE High/Med-low” value in test [1] turned out to be 1.2. In addition, the figures for the EC50 in test [1] (setting [3]) and in test [2] (setting [5]) were 1.1 µM and 0.936 µM, respectively.
`C=CCNC1=C2C[C@@H](C)C[C@H](OC)[C@H](O)[C@@H](C)/C=C(\C)[C@H](OC(N)=O)[C@@H](OC)/C=C\C=C(/C)C(=O)NC(=CC1=O)C2=O` [Tanespimycin 17AAG, Tanespimycin]: the EC50 was found to be 0.314 µM in test [1] (setting [3]) and 0.249 µM in test [2] (setting [5]). In test [1] (setting [4]), the “FOLD CHANGE High/Med-low” value came out at 1.3.
Consider `COc1ccc2cc(-c3nc(-c4ccc([S+](C)[O-])cc4)[nH]c3-c3ccncc3)ccc2c1` (stereo not shown) [Tie2 Kinase Inhibitor], for which the EC50 in test [1] (setting [6]) and in test [2] (setting [7]) was greater than 10 µM in each case. The “FOLD CHANGE High/Med-low” value in test [1] (setting [4]) came to 1.0.
As to `Cn1cncc1[C@@](N)(c1ccc(Cl)cc1)c1ccc2c(c1)c(-c1cccc(Cl)c1)cc(=O)n2C` [Tipifarnib], the figures for the EC50 in test [1] (setting [3]) and in test [2] (setting [5]) were 0.109 µM and 0.158 µM, respectively. Also, in test [1] (setting [4]), the “FOLD CHANGE High/Med-low” value is listed as 0.7.
In the case of `CC(=O)Nc1cccc(-n2c(=O)n(C3CC3)c(=O)c3c(Nc4ccc(I)cc4F)n(C)c(=O)c(C)c32)c1` [Trametinib GSK1120212, Trametinib], the EC50 in test [1] (setting [3]) stood at 0.0253 µM; in test [2] (setting [5]) it was 0.018 µM. Moreover, the “FOLD CHANGE High/Med-low” value in test [1] (setting [4]) amounted to 1.4.
Take `N#CC(=C(/N)Sc1ccccc1N)/C(C#N)=C(\N)Sc1ccccc1N` [U0126]: the “FOLD CHANGE High/Med-low” value in test [1] came out at 1.1. Further, the EC50 worked out at 4.48 µM in test [1] (Homo sapiens, 144 h) and 4.11 µM in test [2] (Homo sapiens, 144 h).
Take `NC(=O)c1ccc(N(C(N)=O)c2c(F)cccc2F)nc1-c1ccc(F)cc1F` [VX702]: the EC50 in test [1] (setting [3]) was 9.55 µM; in test [2] (setting [5]) it was greater than 10 µM. For the same compound, the “FOLD CHANGE High/Med-low” value in test [1] (setting [4]) stood at 1.0.
On the same counts, the results for `CCCS(=O)(=O)Nc1ccc(F)c(C(=O)c2c[nH]c3ncc(-c4ccc(Cl)cc4)cc23)c1F` [Vemurafenib] are 9.7 µM, 8.44 µM and 1.2.
For the compound `Cc1ccc(NC(=O)c2cccc(N(C)C)c2)cc1NC(=O)c1ccc(O)cc1` [ZM336372], the EC50 was greater than 10 µM in test [1] (setting [6]) and 8.88 µM in test [2] (setting [7]). The “FOLD CHANGE High/Med-low” value in test [1] (setting [4]) was 1.1.
For the compound `Cc1ccc(Nc2c(C(N)=O)cnc3cc(-c4ccc(S(C)(=O)=O)cc4)ccc23)cc1C` [cFMS Receptor Inhibitor III], the figures for the EC50 in test [1] (setting [6]) and in test [2] (setting [7]) were 8.86 µM and 7.97 µM, respectively. Further, the “FOLD CHANGE High/Med-low” value in test [1] (setting [4]) stood at 1.1.
Take `N#Cc1ccc(C(=O)Nc2cc(N3CCCCC3)ccc2N2CCCCC2)o1` [cFMS Receptor Inhibitor IV]: the EC50 is greater than 10 µM in test [1] (setting [6]) and 9.57 µM in test [2] (setting [7]). Besides, the “FOLD CHANGE High/Med-low” value in test [1] (setting [4]) is 1.0.
Regarding `CN1CCC(c2[nH]nc(-c3ccc(Cl)cc3)c2-c2ccncn2)CC1` [p38 MAP Kinase Inhibitor V], the figures for the EC50 in test [1] (setting [6]) and in test [2] (setting [7]) were 7.31 µM and 8.79 µM, respectively. Moreover, the “FOLD CHANGE High/Med-low” value in test [1] (setting [4]) turned out to be 0.8.
